Source: US10323022B2, “Pyrrolidinyl urea, pyrrolidinyl thiourea and pyrrolidinyl guanidine compounds as TrkA kinase inhibitors” (Array BioPharma Inc., priority 2011, dated 2019)
Counter-ions that a name gives are not always drawn.

Molecular target: TrkA (Homo sapiens (Human), UniProt P04629)
Assay: TrkA Omnia Assay
Assay type: biochemical
Conditions: averaged IC50; 20 nM enzyme, 500 μM ATP, 10 μM peptide substrate
How it was run: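 Continuous fluorescent kinase read-out (ex 360 nm, em 485 nm) over 70 min, with initial rates fitted to 4- or 5-parameter logistic curves for IC50. Final conditions: 500 μM ATP, 10 μM Omnia Tyr Peptide #4, 20 nM TrkA, MOPS pH 7.5 buffer with MgCl2 and Triton X-100; enzyme and compound preincubated 10 min at ambient temperature.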

Chain of TrkA (P04629 33-796): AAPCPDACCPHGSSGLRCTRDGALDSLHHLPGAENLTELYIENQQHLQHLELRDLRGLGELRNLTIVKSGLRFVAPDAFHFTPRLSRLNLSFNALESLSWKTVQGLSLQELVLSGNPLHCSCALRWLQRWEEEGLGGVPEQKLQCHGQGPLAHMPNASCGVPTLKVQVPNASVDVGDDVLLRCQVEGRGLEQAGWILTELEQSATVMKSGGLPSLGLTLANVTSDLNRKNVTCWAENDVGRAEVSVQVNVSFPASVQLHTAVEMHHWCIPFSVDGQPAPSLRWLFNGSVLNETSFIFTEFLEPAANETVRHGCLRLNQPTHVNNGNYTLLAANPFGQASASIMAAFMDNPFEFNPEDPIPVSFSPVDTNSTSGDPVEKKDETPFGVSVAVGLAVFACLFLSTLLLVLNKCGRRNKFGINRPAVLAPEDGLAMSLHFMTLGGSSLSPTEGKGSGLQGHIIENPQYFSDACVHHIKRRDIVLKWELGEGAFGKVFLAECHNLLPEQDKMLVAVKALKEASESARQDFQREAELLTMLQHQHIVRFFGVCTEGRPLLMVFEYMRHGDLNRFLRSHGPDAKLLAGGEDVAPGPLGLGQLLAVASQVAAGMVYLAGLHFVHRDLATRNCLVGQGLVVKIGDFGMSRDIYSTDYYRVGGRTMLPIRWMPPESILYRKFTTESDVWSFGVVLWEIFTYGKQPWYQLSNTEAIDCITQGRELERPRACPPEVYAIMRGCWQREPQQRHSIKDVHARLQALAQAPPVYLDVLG

Row | SMILES | IC50 [µM]
1 | COCCN1C[C@@H](NC(=O)Nc2c(C)c(=O)[nH]n2-c2ccccc2)[C@H](c2ccc(F)c(Cl)c2)C1 (relative stereo) [Example 610, 1-((trans)-4-(3-chloro-4-fluorophenyl)-1-(2-methoxyethyl)pyrrolidin-3-yl)-3-(4-methyl-5-oxo-2-phenyl-2,5-dihydro-1H-pyrazol-3-yl)urea] | < 0.1
2 | COc1ncccc1N1C[C@@H](NC(=O)Nc2c(C)c(-c3ccccc3)nn2-c2ccccc2)[C@H](c2ccccc2)C1 [Example 245, 1-((3S,4R)-1-(2-methoxypyridin-3-yl)-4-phenylpyrrolidin-3-yl)-3-(4-methyl-1,3-diphenyl-1H-pyrazol-5-yl)urea] | 0.1 to 1
3 | COCCN1C[C@@H](NC(=O)Nc2c(C)c(OC[C@@H]3COC(C)(C)O3)nn2-c2ccccc2)[C@H](c2cc(F)cc(F)c2)C1 [Example 392, 1-((3S,4R)-4-(3,5-difluorophenyl)-1-(2-methoxyethyl)pyrrolidin-3-yl)-3-(3-(((R)-2,2-dimethyl-1,3-dioxolan-4-yl)methoxy)-4-methyl-1-phenyl-1H-pyrazol-5-yl)urea] | < 0.1
4 | COCCN1C[C@@H](NC(=O)Nc2c(C)c(-c3cnn(C)c3)nn2-c2ccccc2)[C@H](c2cccc(Cl)c2)C1 (relative stereo) [Example 296, 1-(trans-4-(3-chlorophenyl)-1-(2-methoxyethyl)pyrrolidin-3-yl)-3-(1′,4-dimethyl-1-phenyl-1H,1′H-[3,4′-bipyrazol]-5-yl)urea] | < 0.1
5 | COCCN1C[C@@H](NC(=O)Nc2c(C)c(-c3ccc(=O)n(C(C)C)c3)nn2-c2ccccc2)[C@H](c2ccc(F)c(F)c2)C1 [Example 535, 1-((3S,4R)-4-(3,4-difluorophenyl)-1-(2-methoxyethyl)pyrrolidin-3-yl)-3-(3-(1-isopropyl-6-oxo-1,6-dihydropyridin-3-yl)-4-methyl-1-phenyl-1H-pyrazol-5-yl)urea] | < 0.1
6 | CNC(=O)c1nn(-c2ccccc2)c(NC(=O)N[C@@H]2CN(CCOC)C[C@H]2c2ccc(Cl)c(F)c2)c1C (relative stereo) [Example 302, 5-(3-(trans-4-(4-chloro-3-fluorophenyl)-1-(2-methoxyethyl)pyrrolidin-3-yl)ureido)-N,4-dimethyl-1-phenyl-1H-pyrazole-3-carboxamide] | < 0.1
7 | COCCN1C[C@@H](NC(=O)Nc2c(C)c(-c3ccn(C)c(=O)c3)nn2-c2ccccc2)[C@H](c2ccc(Cl)c(F)c2)C1 (relative stereo) [Example 303, 1-(trans-4-(4-chloro-3-fluorophenyl)-1-(2-methoxyethyl)pyrrolidin-3-yl)-3-(4-methyl-3-(1-methyl-2-oxo-1,2-dihydropyridin-4-yl)-1-phenyl-1H-pyrazol-5-yl)urea] | < 0.1
8 | CCOc1nn(-c2ccccc2)c(NC(=O)N[C@@H]2CN(c3cccnc3OC)C[C@H]2c2ccccc2)c1C [Example 242, 1-(3-ethoxy-4-methyl-1-phenyl-1H-pyrazol-5-yl)-3-((3S,4R)-1-(2-methoxypyridin-3-yl)-4-phenylpyrrolidin-3-yl)urea] | < 0.1
9 | CNC(=O)c1nn(-c2ccccc2)c(NC(=O)N[C@@H]2CN(CCOC)C[C@H]2c2ccc(F)cc2)c1C [Example 292, 5-(3-((3S,4R)-4-(4-fluorophenyl)-1-(2-methoxyethyl)pyrrolidin-3-yl)ureido)-N,4-dimethyl-1-phenyl-1H-pyrazole-3-carboxamide] | < 0.1
10 | COCCN1C[C@@H](NC(=O)Nc2c(C)c(-c3ccc(=O)n(C)c3)nn2-c2ccccc2)[C@H](c2cc(F)c(F)c(F)c2)C1 [Example 604, 1-((3S,4R)-1-(2-methoxyethyl)-4-(3,4,5-trifluorophenyl)pyrrolidin-3-yl)-3-(4-methyl-3-(1-methyl-6-oxo-1,6-dihydropyridin-3-yl)-1-phenyl-1H-pyrazol-5-yl)urea] | < 0.1
11 | COCCN1CC(c2ccccc2)[C@H](NC(=O)Nc2cnn3ccccc23)C1 (stereo partly shown) [Example 636] | 0.1 to 1
12 | COCCN1C[C@@H](NC(=O)Nc2c(C)c(OCCN3CCN(C(=O)OC(C)(C)C)CC3)nn2-c2ccccc2)[C@H](c2ccc(F)c(F)c2)C1 [Example 388, tert-butyl 4-(2-((5-(3-((3S,4R)-4-(3,4-difluorophenyl)-1-(2-methoxyethyl)pyrrolidin-3-yl)ureido)-4-methyl-1-phenyl-1H-pyrazol-3-yl)oxy)ethyl)piperazine-1-carboxylate] | < 0.1

Now from value to compound:

Row | IC50 [µM] | SMILES
13 | < 0.1 | COCCN1C[C@@H](NC(=O)Nc2c(C)c(-c3cnc(N)nc3)nn2-c2ccccc2)[C@H](c2ccc(F)c(F)c2)C1 [Example 512, 1-(3-(2-aminopyrimidin-5-yl)-4-methyl-1-phenyl-1H-pyrazol-5-yl)-3-((3S,4R)-4-(3,4-difluorophenyl)-1-(2-methoxyethyl)pyrrolidin-3-yl)urea]
14 | < 0.1 | COCCCc1nn(-c2ccccc2)c(NC(=O)N[C@@H]2CN(CCOC)C[C@H]2c2ccc(F)c(F)c2)c1C [Example 127, 1-((3S,4R)-4-(3,4-difluorophenyl)-1-(2-methoxyethyl)pyrrolidin-3-yl)-3-(3-(3-methoxypropyl)-4-methyl-1-phenyl-1H-pyrazol-5-yl)urea]
15 | < 0.1 | COCCN1C[C@@H](NC(=O)Nc2c(C(N)=O)c(OC)nn2-c2ccccc2)[C@H](c2ccc(F)c(F)c2)C1 [Example 619, 5-(3-((3S,4R)-4-(3,4-difluorophenyl)-1-(2-methoxyethyl)pyrrolidin-3-yl)ureido)-3-methoxy-1-phenyl-1H-pyrazole-4-carboxamide]
16 | < 0.1 | COCCN1C[C@@H](NC(=O)Nc2c3c(nn2-c2ccccc2)CCC3)[C@H](c2ccc(F)cc2)C1 [Example 128, 1-((3S,4R)-4-(4-fluorophenyl)-1-(2-methoxyethyl)pyrrolidin-3-yl)-3-(2-phenyl-2,4,5,6-tetrahydrocyclo-penta[c]pyrazol-3-yl)urea]
17 | < 0.1 | COCCN1C[C@@H](NC(=O)Nc2c3c(nn2-c2ccccc2)COC3)[C@H](c2cc(F)cc(F)c2)C1 [Example 88, 1-((3S,4R)-4-(3,5-difluoro-phenyl)-1-(2-methoxyethyl)pyrrolidin-3-yl)-3-(2-phenyl-4,6-dihydro-2H-furo[3,4-c]pyrazol-3-yl) urea]
18 | < 0.1 | CCc1nn(-c2ccccc2)c(NC(=O)N[C@@H]2CN(CCOC)C[C@H]2c2ccc(F)c(F)c2)c1C [Example 72, 1-((3S,4R)-4-(3,4-difluorophenyl)-1-(2-methoxyethyl)pyrrolidin-3-yl)-3-(3-ethyl-4-methyl-1-phenyl-1H-pyrazol-5-yl)urea]
19 | 1 to 10 | COCCN1C[C@@H](NC(=N)Nc2c(Br)c(C)nn2-c2ccccc2)[C@H](c2ccc(F)c(F)c2)C1 [Example 629, 1-(4-bromo-3-methyl-1-phenyl-1H-pyrazol-5-yl)-3-((3S,4R)-4-(3,4-difluorophenyl)-1-(2-methoxyethyl)pyrrolidin-3-yl)guanidine dihydrochloride]
20 | 1 to 10 | COCCN1C[C@@H](NC(=O)Nc2c(Br)c(-c3ccccc3)nn2C)[C@H](c2ccc(F)c(F)c2)C1 [Example 68, 1-(4-bromo-1-methyl-3-phenyl-1H-pyrazol-5-yl)-3-((3S,4R)-4-(3,4-difluorophenyl)-1-(2-methoxyethyl)pyrrolidin-3-yl)urea]
21 | < 0.1 | COCCN1C[C@@H](NC(=O)Nc2c(Br)c([C@H]3CCCN3)nn2-c2ccccc2)[C@H](c2ccc(F)c(F)c2)C1 [Example 588, 1-(4-bromo-1-phenyl-3-((R)-pyrrolidin-2-yl)-1H-pyrazol-5-yl)-3-((3S,4R)-4-(3,4-difluorophenyl)-1-(2-methoxyethyl)pyrrolidin-3-yl)urea dihydrochloride]
22 | < 0.1 | COCCN1C[C@@H](NC(=O)Nc2c(Br)c(C3CCNCC3)nn2-c2ccccc2)[C@H](c2ccc(F)c(F)c2)C1 [Example 582, 1-(4-bromo-1-phenyl-3-(piperidin-4-yl)-1H-pyrazol-5-yl)-3-((3S,4R)-4-(3,4-difluorophenyl)-1-(2-methoxyethyl)pyrrolidin-3-yl)urea dihydrochloride]
